From US20120316105A1, “Polymyxin Derivates Useful As Antibacterial Agents” (priority 2011, published 2012)
Where two headings read alike, the source gives them in different places. Numbered stars: 1 amine (or outer) side, 2 acyl side, 3 side chain; on linkers, the order of the positions; unused ones are H or OH. Bridge positions count the residues as written; N and C are the ends. Square brackets hold non-standard residues; d marks the D form. Peptide text beside a SMILES is read from it. * marks the point of attachment. Benzoyl(4-OPh) = O=C(c1ccc(Oc2ccccc2)cc1)*; Benzoyl(4-Ph) = O=C(c1ccc(-c2ccccc2)cc1)*; X33 = N#Cc1ccc(-c2cc(C(=O)*)ccc2Cl)cc1; X26 = O=C(c1ccnc(-c2ccc(Cl)cc2)c1)*; X38 = O=S(=O)(c1cccc(-c2ccccc2)c1)*; X20 = Cc1ccc(-c2cccc(C(=O)*)c2)cc1; X10 = COc1nc(-c2ccccc2)ccc1C(=O)*; X36 = c1ccc(-c2cccc(N*)c2)cc1; Dab = NCC[C@H](N)C(=O)O; Dap = NC[C@H](N)C(=O)O; CO = O=C([*:1])[*:2]

What was measured:
[1] = tested on: PA-1646, polymyxin-resistant clinical isolate of Pseudomonas aeruginosa; type: cell-based
Summary of the method: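 Broth dilution MIC and bactericidal (MBC) testing per CLSI methods (M7-A8, M100-S20, M26-A) against polymyxin-resistant clinical P. aeruginosa isolate PA-1646. Compounds tested as trifluoroacetate salts, one as sulfate salt; values in mg/L.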

[2] = tested on: AB-1649, polymyxin-resistant clinical isolate of Acinetobacter baumannii; type: cell-based
Summary of the method: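 Broth dilution MIC per CLSI against the polymyxin-resistant A. baumannii isolate, 2-fold dilutions, overnight incubation, visual read of lowest concentration inhibiting growth. Run in duplicate, lower value reported when within 2-fold; MBC per CLSI M26-A guideline.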

[3] = tested on: AB-3167, clinical isolate of Acinetobacter baumannii; type: cell-based
Summary of the method: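 Broth dilution MIC per CLSI (M7-A8, M100-S20, M26-A for bactericidal), 2-fold dilution series, overnight incubation, visual read of lowest concentration inhibiting growth versus drug-free control. Duplicates run; lower value reported if within 2-fold, otherwise repeated. Compounds tested as trifluoroacetate salts; QC strains and reference compounds required in range.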

[4] = tested on: PA-1646, polymyxin-resistant clinical isolate of Pseudomonas aeruginosa; type: cell-based; remark: listed apart in the source
Summary of the method: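 Broth dilution MIC per CLSI with 2-fold concentration steps, read visually after overnight incubation as lowest concentration inhibiting growth; duplicates within 2-fold, lower value reported, with QC strains and reference compounds. Compounds tested as trifluoroacetate salts, polymyxin B as sulfate.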

[5] = tested on: Pseudomonas aeruginosa strain PA01; type: cell-based
Summary of the method: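 CLSI broth dilution against P. aeruginosa PA01 with two-fold concentration steps and overnight incubation; MIC is lowest concentration visibly inhibiting growth versus drug-free control, in mg/L. Compounds tested as trifluoroacetate salts, in duplicate, lower value reported if within 2-fold; control organisms and reference compounds included.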

[6] = tested on: AB-1649, polymyxin-resistant clinical isolate of Acinetobacter baumannii; type: cell-based; remark: listed apart in the source
Summary of the method: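 MIC and MBC were measured by CLSI broth dilution methods (M7-A8, M100-S20, M26-A) against a polymyxin-resistant clinical isolate and reported in mg/L. Compounds were tested as trifluoroacetate salts, with one exception tested as the sulfate.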

[7] = tested on: EC-1, mouse virulent strain of Escherichia coli; type: cell-based; details: E. coli EC-1; overnight incubation, lower of duplicate values; trifluoroacetate salt (Example 1 and PMB sulfate)
Summary of the method: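 Compounds were tested mostly as trifluoroacetate salts. Duplicate CLSI broth-dilution MICs were read visually after overnight incubation over 2-fold dilutions, with the lower of duplicates within 2-fold taken. QC organisms and reference drugs were included in each run.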

[8] = Cytotoxicity assay (LDH release), hRPTEC; type: cell-based, human; details: human
Summary of the method: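 hRPTEC grown 72 h in REGM, then exposed to compounds at 100, 67, 44, 30, 20 and 13 micromolar for 24 h at 37° C, 5% CO2. LDH released into supernatant measured; TC50 (micromolar) derived. Compounds tested as trifluoroacetate salts unless otherwise noted.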

[9] = PA-1646, polymyxin-resistant clinical isolate of
[10] = AB-1649, polymyxin-resistant clinical isolate of

Structure (SMILES) | PA-1646 MBC [1, 9] [µg/mL] | AB-1649 MIC [2, 10] [µg/mL] | AB-3167 MIC ([3]; AB-3167, clinical isolate of) [µg/mL] | PA-1646 MIC [4, 9] [µg/mL] | PA01 MIC ([5]; strain) [µg/mL] | AB-1649 MBC [6, 10] [µg/mL] | EC-1 MIC [7] [µg/mL] | CC50 at 24 h [8] [µM] | PA-1646 MBC ([1]; P. aeruginosa PA-1646, tested as trifluoroacetate salt (Example 1 and PMB as sulfate salt)) [µg/mL] | AB-1649 MIC ([2]; A. baumannii AB-1649, overnight incubation, lower of duplicate values, trifluoroacetate salt (Example 1 and PMB sulfate)) [µg/mL] | AB-3167 MIC ([3]; A. baumannii AB-3167, overnight incubation, lower of duplicate values, trifluoroacetate salt (Example 1 and PMB sulfate)) [µg/mL] | PA-1646 MIC ([4]; P. aeruginosa PA-1646, overnight incubation, lower of duplicate values, trifluoroacetate salt (Example 1 and PMB sulfate)) [µg/mL] | PA01 MIC ([5]; P. aeruginosa PA01, overnight incubation, lower of duplicate values, trifluoroacetate salt (Example 1 and PMB sulfate)) [µg/mL] | AB-1649 MBC ([6]; A. baumannii AB-1649, tested as trifluoroacetate salt (Example 1 and PMB as sulfate salt)) [µg/mL] | CC50 at 24 h ([8]; Human Renal Proximal Tubule Epithelial cells (hRPTEC), hRPTEC, 24 hours treatment, LDH release, Toxic Concentration 50%, read-out: hRPTEC TC50) [µM]
Cc1ccc(-c2cccc(C(=O)N[C@@H](CCN)C(=O)N[C@H](C(=O)N[C@@H](CN)C(=O)N[C@H]3CCNC(=O)[C@H]([C@@H](C)O)NC(=O)[C@H](CCN)NC(=O)[C@H](CCN)NC(=O)[C@H](CC(C)C)NC(=O)[C@@H](Cc4ccccc4)NC(=O)[C@H](CCN)NC3=O)[C@@H](C)O)c2)cc1 [Example 37] (X20-[Dab]T[Dap][Dab][Dab][dF]L[Dab][Dab]T; lactam 4-C) | 4 | 4 | 1 | 2 | 2 | 4 | 0.5 | 18 |  |  |  |  |  |  | 
COc1nc(-c2ccccc2)ccc1C(=O)N[C@@H](CCN)C(=O)N[C@H](C(=O)N[C@@H](CN)C(=O)N[C@H]1CCNC(=O)[C@H]([C@@H](C)O)NC(=O)[C@H](CCN)NC(=O)[C@H](CCN)NC(=O)[C@H](CC(C)C)NC(=O)[C@@H](Cc2ccccc2)NC(=O)[C@H](CCN)NC1=O)[C@@H](C)O [Example 38] (X10-[Dab]T[Dap][Dab][Dab][dF]L[Dab][Dab]T; lactam 4-C) | 1 | 4 | 0.25 | 1 | 1 | 4 | 0.25 | 16 |  |  |  |  |  |  | 
CC(C)C[C@@H]1NC(=O)[C@@H](Cc2ccccc2)NC(=O)[C@H](CCN)NC(=O)[C@@H](NC(=O)[C@H](CN)NC(=O)[C@@H](NC(=O)[C@H](CCN)NC(=O)c2ccc(Cl)c(-c3ccc(C#N)cc3)c2)[C@@H](C)O)CCNC(=O)[C@H]([C@@H](C)O)NC(=O)[C@H](CCN)NC(=O)[C@H](CCN)NC1=O [Example 39] (X33-[Dab]T[Dap][Dab][Dab][dF]L[Dab][Dab]T; lactam 4-C) | 4 | 4 | 0.5 | 1 | 1 | 4 | 0.5 | 20 |  |  |  |  |  |  | 
CC(C)C[C@@H]1NC(=O)[C@@H](Cc2ccccc2)NC(=O)[C@H](CCN)NC(=O)[C@@H](NC(=O)[C@H](CN)NC(=O)[C@@H](NC(=O)[C@H](CCN)NC(=O)Nc2cccc(-c3ccccc3)c2)[C@@H](C)O)CCNC(=O)[C@H]([C@@H](C)O)NC(=O)[C@H](CCN)NC(=O)[C@H](CCN)NC1=O [Example 40] ({X36-CO}-[Dab]T[Dap][Dab][Dab][dF]L[Dab][Dab]T; lactam 4-C) | 1 | 4 | 0.25 | 1 | 0.5 | 4 | 0.25 | 15 |  |  |  |  |  |  | 
CC(C)C[C@@H]1NC(=O)[C@@H](Cc2ccccc2)NC(=O)[C@H](CCN)NC(=O)[C@@H](NC(=O)[C@H](CN)NC(=O)[C@@H](NC(=O)[C@H](CCN)NS(=O)(=O)c2cccc(-c3ccccc3)c2)[C@@H](C)O)CCNC(=O)[C@H]([C@@H](C)O)NC(=O)[C@H](CCN)NC(=O)[C@H](CCN)NC1=O [Example 41] (X38-[Dab]T[Dap][Dab][Dab][dF]L[Dab][Dab]T; lactam 4-C) | 4 | 64 | 1 | 2 | 0.25 | >64 | 0.25 | 42 |  |  |  |  |  |  | 
CC(C)C[C@@H]1NC(=O)[C@@H](Cc2ccccc2)NC(=O)[C@H](CCN)NC(=O)[C@@H](NC(=O)[C@H](CN)NC(=O)[C@@H](NC(=O)[C@H](CCN)NC(=O)c2ccc(Oc3ccccc3)cc2)[C@@H](C)O)CCNC(=O)[C@H]([C@@H](C)O)NC(=O)[C@H](CCN)NC(=O)[C@H](CCN)NC1=O [Example 42] ({Benzoyl(4-OPh)}-[Dab]T[Dap][Dab][Dab][dF]L[Dab][Dab]T; lactam 4-C) |  |  |  |  |  |  | 0.25 |  | 4 | 1 | 0.25 | 1 | 0.5 | 1 | 27
CC(C)C[C@@H]1NC(=O)[C@@H](Cc2ccccc2)NC(=O)[C@H](CCN)NC(=O)[C@@H](NC(=O)[C@H](CN)NC(=O)[C@@H](NC(=O)[C@H](CCN)NC(=O)c2ccnc(-c3ccc(Cl)cc3)c2)[C@@H](C)O)CCNC(=O)[C@H]([C@@H](C)O)NC(=O)[C@H](CCN)NC(=O)[C@H](CCN)NC1=O [Example 44] (X26-[Dab]T[Dap][Dab][Dab][dF]L[Dab][Dab]T; lactam 4-C) | 1 | 1 | 0.25 | 1 | 0.5 | 1 | 0.25 | 30 |  |  |  |  |  |  | 
CC(C)C[C@@H]1NC(=O)[C@@H](Cc2ccccc2)NC(=O)[C@H](CCN)NC(=O)[C@@H](NC(=O)[C@H](CN)NC(=O)[C@@H](NC(=O)[C@H](CCN)NC(=O)c2ccc(-c3ccccc3)cc2)[C@@H](C)O)CCNC(=O)[C@H]([C@@H](C)O)NC(=O)[C@H](CCN)NC(=O)[C@H](CCN)NC1=O [Example 45] ({Benzoyl(4-Ph)}-[Dab]T[Dap][Dab][Dab][dF]L[Dab][Dab]T; lactam 4-C) | 1 | 1 | 0.25 | 0.5 | 0.5 | 1 | 0.25 | 28 |  |  |  |  |  |  | 
